In test [1] the target is T1, thioredoxin reductase/thioredoxin (Homo sapiens, UniProt Q16881).
T1 sequence (Q16881 1-499 isoform Q16881-5): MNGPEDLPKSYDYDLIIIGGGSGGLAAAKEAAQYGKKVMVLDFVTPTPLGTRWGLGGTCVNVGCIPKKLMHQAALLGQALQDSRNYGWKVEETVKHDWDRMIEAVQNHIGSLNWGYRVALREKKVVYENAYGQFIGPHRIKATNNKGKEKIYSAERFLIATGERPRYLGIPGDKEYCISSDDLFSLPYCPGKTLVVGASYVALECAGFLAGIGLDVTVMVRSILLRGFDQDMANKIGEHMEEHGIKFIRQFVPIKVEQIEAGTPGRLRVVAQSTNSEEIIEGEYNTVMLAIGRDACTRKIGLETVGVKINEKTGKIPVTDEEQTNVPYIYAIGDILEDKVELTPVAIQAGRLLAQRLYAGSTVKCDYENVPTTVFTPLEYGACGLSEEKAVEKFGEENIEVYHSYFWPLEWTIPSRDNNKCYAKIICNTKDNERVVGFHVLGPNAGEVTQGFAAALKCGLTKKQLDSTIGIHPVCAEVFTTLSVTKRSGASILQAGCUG
Nature of the test: thioredoxin reductase/thioredoxin-dependent insulin reduction assay. The format is biochemical.

Test [2] relates to human MCF-7 breast cancer. Nature of the test: MCF-7 breast cancer xenografts in scid mice. The test is classed as in vivo. Particulars: for tumor inhibition: MCF-7 tumor system.
The test system of the next test is HL-60 leukemia. In words: HL-60 leukemia xenografts in scid mice. The test is classed as in vivo. Particulars: for antitumor activity against HL-60 leukemia: a number of the animals without tumor at day 45.
The next test concerns tumors in the colon. Nature of the test: min (multiple intestinal neoplasia) mouse chemoprevention. Particulars: in the diet at 250 ppm. The test is classed as in vivo. The text has this: The min mouse has a germline mutation in the APC gene seen in human familial adenomatous polyposis (FAP). This model was chosen because of its genetic basis and as an alternative to chemically-induced models of colon cancer. The majority of the tumors that develops in the adult min mice are in the small intestine, although tumors are first diagnosed in the colon. FAP represents a high risk group of subjects with a readily identifiable early end-point marker that is suitable for trials of novel chemopreventive agents.

For test [3], the system named is thioredoxin-dependent cell proliferation. Nature of the test: thioredoxin- versus serum-dependent cell proliferation in culture. The format is cell-based.
The next test addresses T2, glutathione reductase (Homo sapiens, UniProt P00390).
T2 sequence (P00390 1-479 isoform P00390-2): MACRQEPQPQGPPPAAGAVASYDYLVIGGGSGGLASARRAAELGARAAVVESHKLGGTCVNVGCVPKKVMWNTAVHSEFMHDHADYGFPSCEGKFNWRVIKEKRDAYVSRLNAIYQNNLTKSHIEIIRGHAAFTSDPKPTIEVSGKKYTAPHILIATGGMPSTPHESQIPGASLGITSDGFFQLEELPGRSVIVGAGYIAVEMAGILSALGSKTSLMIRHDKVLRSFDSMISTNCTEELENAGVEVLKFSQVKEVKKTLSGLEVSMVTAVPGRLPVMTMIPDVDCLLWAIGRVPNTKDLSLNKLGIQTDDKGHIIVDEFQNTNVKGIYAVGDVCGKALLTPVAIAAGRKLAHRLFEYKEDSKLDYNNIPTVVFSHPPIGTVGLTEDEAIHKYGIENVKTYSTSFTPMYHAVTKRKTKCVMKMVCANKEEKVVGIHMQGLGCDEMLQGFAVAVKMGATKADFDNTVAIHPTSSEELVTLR
Nature of the test: glutathione reductase assay (DTNB reduction). The test is classed as biochemical.

Test [4] deals with NCI's panel of 60 human cancer cell lines. The note with it: cited from earlier work.
For a further test, the system named is leukemia cell line. Particulars: cited from earlier work.
A further test has as its target T3, thioredoxin reductase (Homo sapiens, UniProt Q16881).
T3 sequence (Q16881 1-499 isoform Q16881-5): T1 sequence (Q16881 1-499 isoform Q16881-5)
Nature of the test: biochemical.

In test [5] the test system is MCF-7 breast cancer cells. Particulars: read-out: EC50 for thioredoxin growth stimulation; cited from earlier work.
[6] abbreviates: Table III, read-out: in vitro IC50 TR/Trx (μg/ml) (converted).
The mark [7] stands for this setting: Table I, 30 min preincubation, read-out: IC50 (μg/ml) in TR/Trx Assay (converted).
Where [8] appears, read: Table II, read-out: IC50TRTrx (μg/ml) (converted).
[9] abbreviates: ratio of IC50 TR alone and IC50 TR/Trx assay.
The mark [10] stands for this setting: Table II, read-out: IC50GR (μg/ml) (converted).
[11] abbreviates: mean 50% growth inhibition concentration, entire cell line panel.
[12] abbreviates: mean 50% growth inhibition concentration, leukemias.

In brackets after ≈: the same amount, converted by molar mass. Read-outs that look alike come from different tables or passages of the source.

With `c1ccc(CSSc2ncc[nH]2)cc1` [DLK-36, benzyl-2-imidazolyl disulfide], the IC50 in test [1] (setting [6]) is 180 µM. The “T/C % tumor volume at day 28” value was found to be 100.7% in test [2] (25 mg/kg/day for 14 days) and 23.7% in test [2] (40 mg/kg/day for 14 days). The compound further registered a tumor inhibition in [2] of 65%. Also, the “antitumor activity against HL-60 leukemia” value with HL-60 leukemia is listed as “showed antitumor activity”.

As to `CCC(C)SSc1ncc[nH]1` (centres unmarked) [IV-2, 1-methylpropyl 2-imidazolyl disulfide], the figures for the “T/C % tumor volume at day 28” value in test [2] (5 mg/kg/day for 14 days), in test [2] (10 mg/kg/day for 14 days) and in test [2] (15 mg/kg/day for 14 days) were 56.7%, 45.9% and 2.3%, respectively. In test [2], this compound returned a tumor inhibition of 98%. In addition, the “antitumor activity against MCF-7 xenografts” value in test [2] (scid mice) was “dose-dependent antitumor activity”. Further, the “antitumor activity against HL-60 xenografts” value in the test on HL-60 leukemia is given as “dose-dependent antitumor activity”. Moreover, in the test on HL-60 leukemia, the “antitumor activity against HL-60 leukemia” value is “showed antitumor activity”. In addition, the “size of remaining tumors” value with tumors in the colon (p<0.001 compared to control) is on record as “significant reduction in the size of remaining tumors”. In addition, the “reduction of number of tumors in the colon” value in the test with tumors in the colon (p=0.0160) came out at 70%. In addition, the “inhibition of thioredoxin- versus serum-dependent cell proliferation” value in test [3] is “greater inhibition of thioredoxin than serum-dependent cell proliferation”.

As to `CCCC(=O)OC1C2C(CC1(C)C)C(=O)C13OC1C(=O)C1(CO1)C23C` (centres unmarked) [NSC 163027], the IC50 in test [1] (setting [7]) was 1.09 µM; in [1] (setting [8]), 1.09 µM; in [1] (setting [6]) it was not above 1.44 µM; on glutathione reductase (setting [10]), 115 µM; at thioredoxin reductase, 14.4 µM. Besides, the TR/TRTrx in test [1] (setting [9]) is on record as 13.2. In addition, in test [4] (setting [11]), the “GI50 (μg/ml) All Tumors” value was 3.1 µg/mL (≈ 8.9 µM). The “GI50 (μg/ml) Leukemias” value with leukemia cell line (setting [12]) is 0.6 µg/mL (≈ 1.72 µM).

Consider `Cc1cc2c(c(O)c1-c1c(C)cc(O)c3c1C(=O)C=CC3=O)C(=O)C=CC2=O` [NSC 208731], for which the IC50 in test [1] (setting [7]) is 0.267 µM; in [1] (setting [8]), 0.267 µM; in test [1] (setting [6]) it was not above 0.267 µM; on glutathione reductase (setting [10]), 13.4 µM. Moreover, the TR/TRTrx in [1] (setting [9]) is 1.0. In addition, the “GI50 (μg/ml) All Tumors” value in [4] (setting [11]) is 0.6 µg/mL (≈ 1.6 µM). Besides, the “GI50 (μg/ml) Leukemias” value with leukemia cell line (setting [12]) was 0.03 µg/mL (≈ 0.0801 µM).

As for `C=C(CN(C)C)C(=O)c1ccc(C)cc1C` [NSC 382000], the IC50 is 0.46 µM in [1] (setting [7]), 0.46 µM in test [1] (setting [8]), not above 0.46 µM in test [1] (setting [6]) and 13.8 µM on glutathione reductase (setting [10]). In addition, in test [1] (setting [9]), the TR/TRTrx was determined as 1.0. Further, in [4] (setting [11]), the “GI50 (μg/ml) All Tumors” value is 1.0 µg/mL (≈ 4.6 µM). Moreover, the “GI50 (μg/ml) Leukemias” value with leukemia cell line (setting [12]) was 0.1 µg/mL (≈ 0.46 µM).

As to `CC1COC2C3=C(C(=O)C=CC3=O)C3OC(=O)C4CCC5CC1CCC52C43` (centres unmarked) [NSC 401005], the IC50 in test [1] (setting [7]) is 0.163 µM; in test [1] (setting [8]), 0.163 µM; in test [1] (setting [6]) it was not above 0.271 µM; at glutathione reductase (setting [10]) it was 40.7 µM. For the same compound, the TR/TRTrx in [1] (setting [9]) is 1.7. Besides, in test [4] (setting [11]), the “GI50 (μg/ml) All Tumors” value is 7.6 µg/mL (≈ 20.6 µM). Further, the “GI50 (μg/ml) Leukemias” value with leukemia cell line (setting [12]) was 1.8 µg/mL (≈ 4.89 µM).

`CC(C)(CN1C(=O)C(Cl)=C(Cl)C1=O)CN1C(=O)C(Cl)=C(Cl)C1=O` [NSC 617145]: the IC50 in test [1] (IC50 (μg/ml) in TR/Trx Assay) was 0.3 µM; in [1] (IC50TRTrx (μg/ml)) it was 0.3 µM; in [1] (in vitro IC50 TR/Trx (μg/ml)) it was not above 1.25 µM; against glutathione reductase, 125 µM. Also, in test [1] (setting [9]), the TR/TRTrx turned out to be 0.8. For the same compound, the “GI50 (μg/ml) All Tumors” value in test [4] (setting [11]) is 4.4 µg/mL (≈ 11 µM). The “GI50 (μg/ml) Leukemias” value in the test on leukemia cell line (setting [12]) was 0.2 µg/mL (≈ 0.5 µM).

Consider `CCc1cccc(CC)c1NC(=O)/C(Cl)=C(/Cl)C(=O)O` [NSC 618605], for which the IC50 in [1] (setting [7]) is 0.38 µM; in [1] (setting [8]), 0.38 µM; in test [1] (setting [6]) it was not above 1.58 µM; on glutathione reductase (setting [10]), 108 µM. Also, the TR/TRTrx in test [1] (setting [9]) amounted to 0.8. Besides, the “GI50 (μg/ml) All Tumors” value in [4] (setting [11]) was 7.2 µg/mL (≈ 22.8 µM). Further, in the test with leukemia cell line (setting [12]), the “GI50 (μg/ml) Leukemias” value was 2.5 µg/mL (≈ 7.91 µM).

As for `COC(=O)C(CBr)CBr` [NSC 620109], the TR/TRTrx in test [1] came to 0.3. In addition, the IC50 was 1.23 µM in test [1] (read-out: IC50 (μg/ml) in TR/Trx Assay (converted)), 1.23 µM in [1] (read-out: IC50TRTrx (μg/ml) (converted)), not above 1.92 µM in test [1] (read-out: in vitro IC50 TR/Trx (μg/ml) (converted)) and 127 µM on glutathione reductase (read-out: IC50GR (μg/ml) (converted)). Further, the “GI50 (μg/ml) All Tumors” value in [4] was 1.1 µg/mL (≈ 4.23 µM). In addition, in the test with leukemia cell line, the “GI50 (μg/ml) Leukemias” value was 0.2 µg/mL (≈ 0.769 µM).

For the compound `Cc1ccc(NC(=O)/C(Cl)=C(/Cl)C(=O)O)cc1` [NSC 622378], the IC50 in test [1] (setting [7]) was 0.438 µM; in [1] (setting [8]) it was 0.438 µM; in test [1] (setting [6]) it was not above 1.82 µM; at glutathione reductase (setting [10]), 73 µM. The TR/TRTrx in [1] (setting [9]) amounted to 0.8. The “GI50 (μg/ml) All Tumors” value in test [4] (setting [11]) was 5.0 µg/mL (≈ 18.2 µM). Further, the “GI50 (μg/ml) Leukemias” value in the test on leukemia cell line (setting [12]) was 1.6 µg/mL (≈ 5.84 µM).

Consider `Cc1cccc2c1c1ccc3c(c1n2C)C(=O)C=CC3=O` [NSC 645330], for which the IC50 in test [1] (setting [7]) is 6.9 µM; in test [1] (setting [8]) it was 6.87 µM; in [1] (setting [6]) it was not above 18.2 µM; at glutathione reductase (setting [10]), 182 µM; against thioredoxin reductase, 182 µM. In addition, the TR/TRTrx in [1] (setting [9]) amounted to 26.5. Also, in [4] (setting [11]), the “GI50 (μg/ml) All Tumors” value is 1.5 µg/mL (≈ 5.45 µM). Also, the “GI50 (μg/ml) Leukemias” value with leukemia cell line (setting [12]) was 0.3 µg/mL (≈ 1.09 µM).

Consider `O=[N+]([O-])C(=C(Sc1ccccc1)Sc1ccccc1)C(Cl)=C(Cl)Cl` [NSC 665103], for which the IC50 was 0.239 µM in [1] (setting [7]); 0.239 µM in [1] (setting [8]); not above 0.239 µM in [1] (setting [6]); 76.4 µM at glutathione reductase (setting [10]); 11.9 µM on thioredoxin reductase. Also, the TR/TRTrx in [1] (setting [9]) turned out to be 50.0. Besides, in test [4] (setting [11]), the “GI50 (μg/ml) All Tumors” value is 0.4 µg/mL (≈ 0.955 µM). Moreover, the “GI50 (μg/ml) Leukemias” value with leukemia cell line (setting [12]) was 0.04 µg/mL (≈ 0.0955 µM).

Regarding thioredoxin, the EC50 (usually the concentration giving half of the maximal effect) in test [5] was 0.35 µM.

(Values after patent publication US6372772B1, “Inhibitors of redox signaling and methods of using same” (Prolx Pharmaceuticals Corporation, priority 1997, dated 2002).)
